Drawing on US5519051A, “Oxa- or azasteroid derivatives” (Teikoku Hormone Mfg. Co., Ltd., priority 1991, dated 1996), this text covers IC50 for eight compounds.

Molecules are shown by their SMILES.

This test concerns the target T1, aromatase (Homo sapiens, UniProt P11511).
T1 construct: human placental microsome (one obtained by centrifugation at 105,000); from tissue; host or cells: human placenta, microsomes (washed with dithiothreitol, freeze-dried)
T1 sequence (P11511 1-503): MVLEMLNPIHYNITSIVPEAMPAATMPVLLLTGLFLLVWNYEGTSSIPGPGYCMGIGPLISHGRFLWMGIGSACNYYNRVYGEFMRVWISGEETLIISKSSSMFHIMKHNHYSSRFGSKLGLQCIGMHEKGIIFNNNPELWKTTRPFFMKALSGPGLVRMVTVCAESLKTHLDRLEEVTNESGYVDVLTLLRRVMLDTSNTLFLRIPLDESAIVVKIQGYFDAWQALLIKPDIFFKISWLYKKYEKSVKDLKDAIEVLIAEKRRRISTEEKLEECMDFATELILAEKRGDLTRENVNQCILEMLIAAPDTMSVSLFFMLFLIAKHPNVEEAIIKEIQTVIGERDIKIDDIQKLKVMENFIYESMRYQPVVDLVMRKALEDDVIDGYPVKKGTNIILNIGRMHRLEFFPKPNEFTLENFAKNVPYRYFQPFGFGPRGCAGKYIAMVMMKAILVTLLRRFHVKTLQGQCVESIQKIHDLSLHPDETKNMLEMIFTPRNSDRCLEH
Nature of the test: aromatase inhibition action (3H2O liberated by aromatization of [1,2-3H] androstenedione, human placental microsome). The class given is biochemical. The note with it: freeze-dried human placental microsome 150 μg; 2 μM [1,2-3H] androstenedione; 180 μM NADPH; pH 7.5; 37° C., 20 minutes. The procedure:
(1) Assay of aromatase inhibition action
According to the method of Ryan (The Journal of Biological Chemistry, 234, 268-272, 1959), human placental microsome (one obtained by centrifugation at 105,000 × g for 60 minutes) was prepared. A microsome was used after being washed twice with 0.5 mM dithiothreitol solution, freeze-driedand stored at -20° C.
Aromatase inhibition action was assayed according to the method developed by Tompson and Siiteri (The Journal of Biological Chemistry, 249, 5373-5378, 1974). The method is to determine the amount of ^3 H2 O liberated by aromatization of [1,2-^3 H] androstenedione. The experiment using the enzyme is carried out in 67 mM phosphate buffer of pH 7.5 so that the amount of the last incubation liquid gets to be 0.5 mi. The incubation liquid contains 180 μM NADPH, 2 μM [1,2-^3 H] androstenedione, 150 μg of the freeze-dried human placental microsome, 25 μl of methanol and a test compound in various concentrations. The incubation is carried out in the air at 37° C. for 20 minutes, 3 ml of chloroform is added to finish the reaction, and then the mixture is stirred for 40 seconds. Then, centrifugation is conducted at 700 × g for 10 minutes, 0.3 ml of the aqueous solution is removed from the supernatant, the scintillation mixture is added, and the amount of ^3 H2 O formed is determined
For the compound `C[C@]12CCCC=C1CC[C@@H]1[C@@H]2CC[C@]2(C)C(=O)OC[C@@H]12` [Example 3, 16-oxaandrost-4-en-17-one], the IC50 was determined as 1200 nM.

Consider `C[C@]12CCCC=C1CC[C@@H]1[C@@H]2CC[C@]2(C)C(=O)OCC[C@@H]12` [Example 25, D-homo-17-oxaandrost-4-en-17a-one], for which the IC50 came to 730 nM.

Take `C[C@]12CCCC=C1[C@@H]1[C@H]([C@@H]3[C@@H]2CC[C@]2(C)C(=O)OCC[C@@H]32)C1(F)F` [Example 28, 6α,7α-difluoromethylene-D-homo-17-oxaandrost-4-en-17a-one]: the IC50 was found to be 1300 nM.

As for `C[C@]12CCC(=O)C(O)=C1CC[C@@H]1[C@@H]2CC[C@]2(C)C(=O)OCC[C@@H]12` [Example 31, 4-hydroxy-D-homo-17-oxaandrost-4-ene-3,17a-dione], the concentration for half-maximal inhibition (IC50) was 600 nM.

On to `C=C1C[C@@H]2[C@H](CC[C@]3(C)C(=O)OCC[C@@H]23)[C@@]2(C)C=CC(=O)C=C12` [Example 36, 6-methylene-17-oxa-D-homoandrosta-1,4-diene-3,17a-dione], for which the IC50 amounted to 2100 nM.

`C[C@]12CC[C@H]3[C@@H](CC(=O)C4=CC(=O)CC[C@@]43C)[C@@H]1CCOC2` [Example 50, D-homo-17-oxaandrost-4-ene-3,6-dione]: the IC50 turned out to be 2700 nM.

Turning to `C[C@]12CC[C@H]3[C@@H](C=CC4=CC(=O)C=C[C@@]43C)[C@@H]1CCOC2` [Example 51, D-homo-17-oxaandrosta-1,4,6-trien-3-one], the IC50 came to 2900 nM.

Consider `C[C@]12CC[C@H]3[C@@H](CCC4=C(O)C(=O)CC[C@@]43C)[C@@H]1CCOC2` [Example 56, 4-hydroxy-D-homo-17-oxaandrost-4-en-3-one], for which the concentration for half-maximal inhibition (IC50) was 1900 nM.

In general, IC50 refers to the concentration that gives 50% inhibition.
